Assay results reported in article PMC10952582, “Pregnenolone sulfate analogues differentially modulate GABAA receptor closed/desensitised states” (British Journal of Pharmacology, 2023).

Tests used:
α1β3γ2LV262F GABAAR = target: T1, α1β3γ2LV262F GABAAR (Mus musculus, UniProt P62812); experiment: Whole-cell voltage-clamp electrophysiology, highly desensitising mutant α1β3γ2LV262F in HEK cells; assay type: cell-based, murine
T1 construct: expressed in transfected cells; host or cells: HEK 293 cells (ATCC CRL-1573)
T1 sequence (P62812 28-455): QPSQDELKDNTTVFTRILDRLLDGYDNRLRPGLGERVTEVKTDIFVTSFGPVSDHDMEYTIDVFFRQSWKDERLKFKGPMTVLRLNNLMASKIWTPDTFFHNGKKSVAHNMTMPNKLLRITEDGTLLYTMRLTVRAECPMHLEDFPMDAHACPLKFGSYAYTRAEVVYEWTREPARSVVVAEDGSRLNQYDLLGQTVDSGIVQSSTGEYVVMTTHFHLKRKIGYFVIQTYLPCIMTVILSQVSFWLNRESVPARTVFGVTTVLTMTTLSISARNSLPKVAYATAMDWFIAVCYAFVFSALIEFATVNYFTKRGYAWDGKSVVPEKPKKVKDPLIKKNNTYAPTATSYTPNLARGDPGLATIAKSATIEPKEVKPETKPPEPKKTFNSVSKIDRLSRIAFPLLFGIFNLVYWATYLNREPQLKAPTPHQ
T1 sequence (P63080 26-473 partner): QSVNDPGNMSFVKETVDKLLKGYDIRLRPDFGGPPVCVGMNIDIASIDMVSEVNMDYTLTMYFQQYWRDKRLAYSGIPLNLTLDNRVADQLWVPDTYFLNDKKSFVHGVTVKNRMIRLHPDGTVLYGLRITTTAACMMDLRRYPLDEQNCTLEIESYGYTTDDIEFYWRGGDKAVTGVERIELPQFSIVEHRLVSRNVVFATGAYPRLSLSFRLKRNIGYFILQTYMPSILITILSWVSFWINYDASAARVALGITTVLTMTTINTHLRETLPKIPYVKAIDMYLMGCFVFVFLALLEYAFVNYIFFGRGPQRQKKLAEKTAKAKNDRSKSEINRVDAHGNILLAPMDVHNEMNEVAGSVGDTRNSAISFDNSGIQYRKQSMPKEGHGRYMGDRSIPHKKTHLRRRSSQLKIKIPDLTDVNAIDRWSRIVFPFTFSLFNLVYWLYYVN
T1 sequence (P22723 39-474 V300F partner): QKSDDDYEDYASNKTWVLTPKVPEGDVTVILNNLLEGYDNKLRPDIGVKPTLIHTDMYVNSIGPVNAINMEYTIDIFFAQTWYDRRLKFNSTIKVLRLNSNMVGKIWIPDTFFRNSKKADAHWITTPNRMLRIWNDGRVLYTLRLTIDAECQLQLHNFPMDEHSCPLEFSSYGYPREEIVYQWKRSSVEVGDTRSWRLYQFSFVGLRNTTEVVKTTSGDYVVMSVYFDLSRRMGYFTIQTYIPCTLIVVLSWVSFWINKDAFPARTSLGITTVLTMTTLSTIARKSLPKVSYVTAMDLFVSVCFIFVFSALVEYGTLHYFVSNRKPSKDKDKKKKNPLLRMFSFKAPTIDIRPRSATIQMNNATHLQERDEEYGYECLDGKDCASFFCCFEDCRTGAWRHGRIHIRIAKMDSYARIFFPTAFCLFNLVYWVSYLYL
Experimental: (§1) HEK 293 cells (ATCC Cat# CRL‐1573, RRID:CVCL_0045) were maintained and transfected under standard conditions. In brief, cells were grown in monolayers in Dulbecco's modified Eagle's medium supplemented with 10% v/v fetal calf serum, 100 U·ml^−1 of penicillin‐G and 100 μg·ml^−1 of streptomycin and incubated at 37°C in humidified 95% air/5% CO2.
(§2) Before transfection, HEK cells were plated onto 22 mm of glass coverslips (VWR) coated in poly‐L‐lysine (Sigma). Cells were transfected with α1 (wild‐type [wt] or mutant [mut]), β3 (wt), γ2L (wt or mut) and enhanced green fluorescent protein (eGFP) in an equimolar ratio (1:1:1:1), using a calcium‐phosphate precipitation protocol. The transfection solution was prepared from 4 μg of cDNA per coverslip, 20 μl of 340 mM of CaCl2 and 24 μl of 2× HEPES‐buffered saline (HBS) (50 mM of HEPES, 280 mM of NaCl and 2.8 mM of Na2HPO4). Cells were selected for electrophysiology after 16–30 h based on their morphology and moderate GFP fluorescence.
(§3) Coverslips with transfected HEK cells were transferred into a recording chamber on a Nikon Eclipse FN1 microscope with a 470‐nm LED for GFP fluorescence. Cells were continuously perfused with Krebs solution containing (mM) 140 NaCl, 4.7 KCl, 1.2 MgCl2, 2.52 CaCl2, 11 glucose and 5 HEPES (pH 7.4). Patch pipettes (thin‐walled filamented borosilicate glass capillaries; TW150F‐4; WPI, USA; 3–4 MΩ) were filled with an intracellular solution containing (mM) 140 CsCl, 2 NaCl, 2 MgCl2, 5 EGTA, 10 HEPES, 0.5 CaCl2, 2 Na‐ATP and 0.5 Na‐GTP (pH 7.2). Drugs were applied to cells using a Y‐tube delivery system (Mortensen & Smart, [2007]), with the PS analogues pre‐applied 10–12 s before co‐application with GABA.
(§4) HEK cells were voltage clamped at −30 mV using an Axopatch 200B amplifier (Molecular Devices, USA), and whole‐cell currents were filtered at 5 kHz (−36 dB), digitised at 50 kHz via a Digidata 1322A (Molecular Devices) and recorded to a Dell Optiplex 990 using Clampex 10.2 (Molecular Devices). Series resistance was compensated at 60%–70%, and only data with <20% deviation in series resistance would be included in subsequent analyses.
(§5) Weighted time constants for the decay phase (τw) were calculated by fitting a biexponential curve to the current decay waveform and applying the following equation: τw=A1.τ1+A2.τ2/A1+A2, where τ1 and τ2 represent time constants for the two exponential components of the decay phase and A1 and A2 are their relative area contributions.
(§6) Current responses from voltage‐clamp experiments were measured, and decays fitted using ClampFit 10.2 (Molecular Devices) to determine the respective time constants. In Origin, data were plotted as concentration–response curves, and curves fitted using the following inhibition equation: I/Imax=1−B^n/IC50^n+B^n, where I is the current response, B is the concentration of the PS analogue, n is the slope coefficient and IC50 is the analogue concentration producing 50% inhibition of GABA current (inhibitory potency). Potency values are presented as pIC50 with SEM values. The mean was transformed into a molar concentration by pIC50 = −log IC50. Other data are represented as the mean ± SEM.

α1β3γ2L GABAAR [1] = target: T2, α1β3γ2L GABAAR (Mus musculus, UniProt P62812); experiment: Whole-cell voltage-clamp electrophysiology, wild-type α1β3γ2L GABAARs expressed in HEK cells; assay type: cell-based, murine; conditions: for mean (weighted) decay time (τw) of GABA current: 1 nM PS analogue, 30 μM GABA
T2 construct: expressed in transfected cells; host or cells: HEK 293 cells (ATCC CRL-1573)
T2 sequence (P62812 28-455): as the sequence (P62812 28-455) above
T2 sequence (P63080 26-473 partner): as the sequence (P63080 26-473 partner) above
T2 sequence (P22723 39-474 partner): as the sequence (P22723 39-474 V300F partner) above, with F262V counted along it
Experimental: as §1, §2, §3, §4, §5, §6

α1V296Lβ3γ2L GABAAR [2] = target: T3, α1V296Lβ3γ2L GABAAR (Mus musculus, UniProt P62812, V323L); experiment: Whole-cell voltage-clamp electrophysiology, minimally desensitising mutant α1V296Lβ3γ2L in HEK cells; assay type: cell-based, murine
T3 construct: expressed in transfected cells; host or cells: HEK 293 cells (ATCC CRL-1573)
T3 sequence (P62812 28-455 V323L): as the sequence (P62812 28-455) above, with V296L counted along it
T3 sequence (P63080 26-473 partner): as the sequence (P63080 26-473 partner) above
T3 sequence (P22723 39-474 partner): as the sequence (P22723 39-474 V300F partner) above, with F262V counted along it
Experimental: as §1, §2, §3, §4, §5, §6

α1β3γ2L GABAAR [3] = target: T4, α1β3γ2L GABAAR (Mus musculus, UniProt P22723+P62812+P63080); experiment: Whole-cell voltage-clamp electrophysiology, wild-type α1β3γ2L GABAARs expressed in HEK cells; assay type: cell-based, murine
T4 construct: expressed in transfected cells; host or cells: HEK 293 cells (ATCC CRL-1573)
T4 sequence (P62812 28-455): as the sequence (P62812 28-455) above
T4 sequence (P63080 26-473 partner): as the sequence (P63080 26-473 partner) above
T4 sequence (P22723 39-474 partner): as the sequence (P22723 39-474 V300F partner) above, with F262V counted along it
Experimental: as §1, §2, §3, §4, §5, §6

α1F399Aβ3γ2L GABAAR = target: T5, α1F399Aβ3γ2L GABAAR (Mus musculus, UniProt P22723+P62812+P63080, F426A); experiment: Whole-cell voltage-clamp electrophysiology, mutant α1F399Aβ3γ2L in HEK cells; assay type: cell-based, murine
T5 construct: expressed in transfected cells; host or cells: HEK 293 cells (ATCC CRL-1573)
T5 sequence (P62812 28-455 F426A): as the sequence (P62812 28-455) above, with F399A counted along it
T5 sequence (P63080 26-473 partner): as the sequence (P63080 26-473 partner) above
T5 sequence (P22723 39-474 partner): as the sequence (P22723 39-474 V300F partner) above, with F262V counted along it
Experimental: as §1, §2, §3, §4, §5
Current responses from voltage‐clamp experiments were measured, and decays fitted using ClampFit 10.2 (Molecular Devices) to determine the respective time constants. […]

α1F295Aβ3γ2L GABAAR = target: T6, α1F295Aβ3γ2L GABAAR (Mus musculus, UniProt P22723+P62812+P63080, F322A); experiment: Whole-cell voltage-clamp electrophysiology, mutant α1F295Aβ3γ2L in HEK cells; assay type: cell-based, murine
T6 construct: expressed in transfected cells; host or cells: HEK 293 cells (ATCC CRL-1573)
T6 sequence (P62812 28-455 F322A): as the sequence (P62812 28-455) above, with F295A counted along it
T6 sequence (P63080 26-473 partner): as the sequence (P63080 26-473 partner) above
T6 sequence (P22723 39-474 partner): as the sequence (P22723 39-474 V300F partner) above, with F262V counted along it
Experimental: as §1, §2, §3, §4, §5, §6

α1β3γ2L GABAAR [4] = target: T2, α1β3γ2L GABAAR; experiment: Kinetic modelling and waveform fitting of GABA currents (ChanneLab); parameters: species or system murine; conditions: waveform fit
Experimental: We used ChanneLab (Version 2.2; Synaptosoft) to build relatively simple kinetic models of the GABAAR. To explore the functional behaviour of PS analogues (compounds) 5 and 6, we incorporated concentration‐dependent PS analogue‐bound states into the model. Simulated currents were generated in ChanneLab and explored at different GABA and PS analogue concentrations. These were evaluated against GABA currents generated under experimental conditions, using the waveform fitting function in ChanneLab. Rate constants connecting receptor states were determined initially empirically with reference to previously published values and varied individually to optimise the fit to the data (seed values) prior to using waveform fitting and Runge–Kutta numerical integration (RK5) to eventually simulate the experimental GABA current profiles with 50 iterations. GABA‐activated membrane currents were fitted over their full timecourse of 20 s.
To investigate, simplified GABAAR models were constructed, incorporating some or all the following receptor states: an unbound closed state (R); GABA‐bound closed ‘composite’ state (RA) that incorporates one or more preactivation states that are not explicitly indicated or a closed (RA) and separate preactivated (RfA) state; a GABA‐bound activated state (RA*); and a desensitised state (RD) accessed via the receptor's activated state. These simple models enable the generation of simulated GABA‐dependent currents, with values for the rate constants determined initially empirically in broad accord with published parameters and manually adjusted to provide seed values before performing waveform fitting with unconstrained rate constants (Figure 8a).
RA* is the activated receptor open channel before moving to a desensitised state RD.

α1V296Lβ3γ2L GABAAR [5] = target: T7, α1V296Lβ3γ2L GABAAR (Mus musculus, UniProt P22723+P62812+P63080, V323L); experiment: Whole-cell voltage-clamp electrophysiology, minimally desensitising mutant α1V296Lβ3γ2L in HEK cells; assay type: cell-based, murine
T7 construct: expressed in transfected cells; host or cells: HEK 293 cells (ATCC CRL-1573)
T7 sequence (P62812 28-455 V323L): as the sequence (P62812 28-455) above, with V296L counted along it
T7 sequence (P63080 26-473 partner): as the sequence (P63080 26-473 partner) above
T7 sequence (P22723 39-474 partner): as the sequence (P22723 39-474 V300F partner) above, with F262V counted along it
Experimental: as §1, §2, §3, §4, §5, §6

[6] = target: T8, α1F295A, F399Aβ3γ2L GABAAR (Mus musculus, UniProt P22723+P62812+P63080, F322A/F426A); experiment: Whole-cell voltage-clamp electrophysiology, mutant α1F295A,F399Aβ3γ2L in HEK cells; assay type: cell-based, murine
T8 construct: expressed in transfected cells; host or cells: HEK 293 cells (ATCC CRL-1573)
T8 sequence (P62812 28-455 F322A/F426A): as the sequence (P62812 28-455) above, with F295A, F399A counted along it
T8 sequence (P63080 26-473 partner): as the sequence (P63080 26-473 partner) above
T8 sequence (P22723 39-474 partner): as the sequence (P22723 39-474 V300F partner) above, with F262V counted along it
Experimental: as §1, §2, §3, §4, §5, §6

[7] = steady-state current after 20 s of 1 mM GABA
[8] = Decay inhibition (pIC50), potency for reducing GABA current weighted decay time constant, 30 μM GABA
[9] = Peak inhibition (IC50), peak current evoked by 30 μM GABA, analogue pre-applied 10–12 s and co-applied
[10] = Steady-state inhibition (IC50), GABA current after 20 s of 30 μM GABA (near steady state)
[11] = Steady-state inhibition (pIC50), GABA current after 20 s of 30 μM GABA (near steady state)
[12] = Peak inhibition (pIC50), peak current evoked by 30 μM GABA, analogue pre-applied 10–12 s and co-applied
[13] = Decay inhibition (pIC50), GABA current weighted decay time constant
[14] = Steady-state inhibition (pIC50), steady-state GABA current
[15] = Steady-state inhibition (pIC50), 30 μM GABA, 20 s
[16] = Decay inhibition (IC50), GABA current weighted decay time constant

Structure (SMILES)	IC50 (α1β3γ2L GABAAR [3]; [8])	IC50 (α1β3γ2L GABAAR [3]; [9])	IC50 (α1β3γ2L GABAAR [3]; [10])	IC50 (α1β3γ2L GABAAR [3]; [11])	mean (weighted) decay time (τw) of GABA current (α1β3γ2L GABAAR [1])	IC50 (α1β3γ2L GABAAR [3]; [12])	IC50 (α1β3γ2LV262F GABAAR; [13])	IC50 (α1β3γ2LV262F GABAAR; [14])	IC50 (α1F399Aβ3γ2L GABAAR; [13])	IC50 (α1F399Aβ3γ2L GABAAR; [15])	IC50 (α1F295Aβ3γ2L GABAAR; [13])	IC50 (α1F295Aβ3γ2L GABAAR; [15])	IC50 [6, 13]	IC50 [6, 15]	other results
NCCCC(=O)O [GABA, γ‐Aminobutyric acid]															mean weighted decay time constant (τw) of GABA current (α1β3γ2LV262F GABAAR; 1 mM GABA, 20 s): 2.3 ± 0.28 s; extent of macroscopic desensitisation (α1β3γ2LV262F GABAAR; [7]): 89 ± 1.3%; mean weighted decay time constant (τw) of GABA current (α1β3γ2L GABAAR [1]; wild-type α1β3γ2L, 1 mM GABA, 20 s): 3.7 ± 0.17 s; extent of macroscopic desensitisation (α1β3γ2L GABAAR [1]; wild-type α1β3γ2L, steady-state current after 20 s of 1 mM GABA): 68 ± 1.6%; mean weighted decay time constant (τw) of GABA current (α1V296Lβ3γ2L GABAAR [2]; 1 mM GABA, 20 s): 7.4 ± 1.3 s; extent of macroscopic desensitisation (α1V296Lβ3γ2L GABAAR [2]; [7]): 39 ± 6.0%
C[C@]12CC[C@H](OS(=O)(=O)O)CC1=CCC1C2CC[C@@]2(C)C1CC[C@@H]2C(=O)Cn1ccnc1 (some centres unmarked) [compound 3]	8.51 µM	743 µM	~1 µM	0.891 µM	3.8 ± 0.8 s										
CC12CCC(OS(=O)(=O)O)CC1=CCC1C2CCC2(C)C(C(=O)CBr)CCC12 (centres unmarked) [compound 2]	0.875 µM	2.7 µM		0.279 µM	3.8 ± 0.2 s	2.65 µM									IC50 (α1β3γ2L GABAAR [3]; Decay inhibition (IC50), potency for reducing GABA current weighted decay time constant, 30 μM GABA): 0.88 µM
CC12CCC(OS(=O)(=O)O)CC1=CCC1C2CCC2(C)C(C(=O)Cn3cccc3)CCC12 (centres unmarked) [compound 8]	3.23 µM			0.236 µM	3.6 ± 0.3 s	33.3 µM									
C[C@]12CC[C@H](OS(=O)(=O)O)CC1=CCC1C2CC[C@@]2(C)C1CC[C@@H]2C(=O)CN1CCOCC1 (some centres unmarked) [compound 5]	117 µM		~1 µM	0.843 µM	3.7 ± 0.1 s	~2000 µM	70.8 µM	14.2 µM	7.89 µM	8.36 µM	8.47 µM	2.93 µM	7.21 µM	5.22 µM	rate constant k2, Model (b) (α1β3γ2L GABAAR [4]; Model (b): binding to RA forming RAP, then RAPd, 30 μM GABA): 62900 M⁻¹ s⁻¹; rate constant k3, Model (b) (α1β3γ2L GABAAR [4]; Model (b), 30 μM GABA): 921000 s⁻¹; IC50 (α1V296Lβ3γ2L GABAAR [5]; [13]): 3.24 µM; IC50 (α1V296Lβ3γ2L GABAAR [5]; [14]): 20.7 µM
C[C@]12CC[C@H](OS(=O)(=O)O)CC1=CCC1C2CC[C@@]2(C)C1CC[C@@H]2C(=O)Cn1cccn1 (some centres unmarked) [compound 6]	1.66 µM		~1 µM	1.13 µM	3.8 ± 0.2 s	220 ± 14.6 µM	2.88 µM	25.1 µM	1.49 µM	7.29 µM	1.35 µM	4.51 µM	1.23 µM	4.15 µM	IC50 (α1F295Aβ3γ2L GABAAR; [16]): 1.4 µM; fold difference in current decay potency, compound 6 vs compound 5 (α1β3γ2L GABAAR [1]; wild-type α1β3γ2L, decay IC50 of 5 vs 6): 70 fold; rate constant k4, Model (c) (α1β3γ2L GABAAR [4]; Model (c): binding to RA (RAP) and RD (RDP), 30 μM GABA): 234000 M⁻¹ s⁻¹; rate constant k2, Model (c) (α1β3γ2L GABAAR [4]; Model (c), 30 μM GABA): 129000 M⁻¹ s⁻¹; rate constant k‐4, Model (c) (α1β3γ2L GABAAR [4]; Model (c), 30 μM GABA): 184 s⁻¹; rate constant k2, Model (d) (α1β3γ2L GABAAR [4]; Model (d): binding to preactivated state RfA (RfAP) and RD): 173000 M⁻¹ s⁻¹; rate constant k4, Model (d) (α1β3γ2L GABAAR [4]; Model (d)): 184000 M⁻¹ s⁻¹; rate constant k‐4, Model (d) (α1β3γ2L GABAAR [4]; Model (d)): 307 s⁻¹; IC50 (α1V296Lβ3γ2L GABAAR [5]; [16]): > 100 µM; IC50 (α1V296Lβ3γ2L GABAAR [5]; Steady-state inhibition (IC50), steady-state GABA current): > 100 µM; IC50 ([6]; Steady-state inhibition (IC50), 30 μM GABA, 20 s): 4.2 µM
